# From ChEMBL document CHEMBL1201862, “PubChem BioAssay data set” (2004)
# The source made the active and inactive calls.
# What was measured:
# [1] = target: T1, Sentrin-specific protease 6 (Homo sapiens, UniProt Q9GZR1); type: functional;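 also: Luminescence-based dose-response confirmatory assay of SENP6 inhibition, following up an ultra-high-throughput screen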
# T1 sequence (Q9GZR1 whole entry): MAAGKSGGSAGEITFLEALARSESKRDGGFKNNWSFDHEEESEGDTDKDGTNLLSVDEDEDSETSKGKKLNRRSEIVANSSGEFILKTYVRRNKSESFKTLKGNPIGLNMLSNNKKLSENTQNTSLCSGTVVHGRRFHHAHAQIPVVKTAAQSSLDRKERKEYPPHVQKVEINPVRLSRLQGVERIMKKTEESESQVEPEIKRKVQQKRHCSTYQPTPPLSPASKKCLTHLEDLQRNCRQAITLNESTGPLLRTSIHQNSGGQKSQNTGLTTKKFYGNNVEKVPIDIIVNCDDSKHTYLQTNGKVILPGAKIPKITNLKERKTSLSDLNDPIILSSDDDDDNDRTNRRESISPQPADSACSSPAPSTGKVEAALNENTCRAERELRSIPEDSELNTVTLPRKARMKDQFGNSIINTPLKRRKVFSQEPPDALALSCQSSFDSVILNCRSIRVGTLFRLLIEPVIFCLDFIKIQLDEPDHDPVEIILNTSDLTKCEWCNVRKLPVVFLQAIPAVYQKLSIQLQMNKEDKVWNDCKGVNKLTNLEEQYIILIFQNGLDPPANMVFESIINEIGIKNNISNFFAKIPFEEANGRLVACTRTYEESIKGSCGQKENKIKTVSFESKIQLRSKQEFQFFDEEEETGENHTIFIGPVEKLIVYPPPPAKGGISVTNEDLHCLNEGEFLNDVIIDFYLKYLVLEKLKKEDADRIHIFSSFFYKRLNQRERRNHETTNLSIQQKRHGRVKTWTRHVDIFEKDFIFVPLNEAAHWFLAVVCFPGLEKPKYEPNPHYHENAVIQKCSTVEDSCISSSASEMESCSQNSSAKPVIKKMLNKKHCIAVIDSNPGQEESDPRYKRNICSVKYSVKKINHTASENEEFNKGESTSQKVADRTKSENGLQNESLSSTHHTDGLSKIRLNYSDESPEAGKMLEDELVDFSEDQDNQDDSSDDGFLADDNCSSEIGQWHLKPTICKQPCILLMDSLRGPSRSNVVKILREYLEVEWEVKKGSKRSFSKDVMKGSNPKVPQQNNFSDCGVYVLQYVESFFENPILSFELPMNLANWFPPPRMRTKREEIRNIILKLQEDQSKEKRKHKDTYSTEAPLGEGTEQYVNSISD
# [2] = target: T2, Histone-lysine N-methyltransferase NSD2 (Homo sapiens, UniProt O96028); type: biochemical
# T2 sequence (O96028 whole entry): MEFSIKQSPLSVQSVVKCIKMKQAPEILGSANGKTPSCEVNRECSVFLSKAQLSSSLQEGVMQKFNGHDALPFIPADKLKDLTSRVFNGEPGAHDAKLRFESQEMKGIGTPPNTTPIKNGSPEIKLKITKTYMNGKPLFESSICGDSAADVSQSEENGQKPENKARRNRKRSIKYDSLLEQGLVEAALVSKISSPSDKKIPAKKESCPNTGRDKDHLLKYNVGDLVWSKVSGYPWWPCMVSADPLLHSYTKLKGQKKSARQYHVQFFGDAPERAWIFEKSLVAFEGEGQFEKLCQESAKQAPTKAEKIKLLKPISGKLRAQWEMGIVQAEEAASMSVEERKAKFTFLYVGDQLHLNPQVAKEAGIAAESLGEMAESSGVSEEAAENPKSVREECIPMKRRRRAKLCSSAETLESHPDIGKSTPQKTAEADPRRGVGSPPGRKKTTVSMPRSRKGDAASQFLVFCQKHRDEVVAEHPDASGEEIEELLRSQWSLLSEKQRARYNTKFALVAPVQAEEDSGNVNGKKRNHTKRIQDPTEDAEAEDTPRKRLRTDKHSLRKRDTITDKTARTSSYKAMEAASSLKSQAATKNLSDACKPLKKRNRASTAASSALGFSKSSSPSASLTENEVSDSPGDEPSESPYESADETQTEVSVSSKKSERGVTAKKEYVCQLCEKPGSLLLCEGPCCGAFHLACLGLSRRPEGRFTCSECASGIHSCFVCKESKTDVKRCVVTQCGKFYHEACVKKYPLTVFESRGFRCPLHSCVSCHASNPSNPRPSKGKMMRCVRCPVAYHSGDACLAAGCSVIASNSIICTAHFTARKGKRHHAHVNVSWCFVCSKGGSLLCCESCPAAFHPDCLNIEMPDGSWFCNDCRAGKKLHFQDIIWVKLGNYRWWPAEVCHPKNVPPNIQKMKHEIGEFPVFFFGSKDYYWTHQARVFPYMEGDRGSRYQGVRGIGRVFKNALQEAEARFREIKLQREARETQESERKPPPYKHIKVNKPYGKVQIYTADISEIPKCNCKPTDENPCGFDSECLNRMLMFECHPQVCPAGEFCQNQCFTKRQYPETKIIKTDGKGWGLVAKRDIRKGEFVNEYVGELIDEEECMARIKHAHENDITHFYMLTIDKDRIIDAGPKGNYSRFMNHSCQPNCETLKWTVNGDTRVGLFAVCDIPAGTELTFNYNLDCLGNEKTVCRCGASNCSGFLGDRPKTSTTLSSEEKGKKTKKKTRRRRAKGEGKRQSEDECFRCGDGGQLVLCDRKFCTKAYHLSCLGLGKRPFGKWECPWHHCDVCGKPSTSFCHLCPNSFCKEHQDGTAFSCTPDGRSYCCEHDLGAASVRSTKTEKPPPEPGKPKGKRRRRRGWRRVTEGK
# [3] = target: Mu-type opioid receptor (Homo sapiens, UniProt P35372); experiment: Counterscreen for agonists of heterodimerization of the mu 1 (OPRM1) and delta 1 (OPRD1) opioid receptors: Luminescence-based cell-based high throughput dose response assay to identify agonists of OPRM1 homodimerization.; type: functional;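 also: U2OS cells expressing OPRM1 and beta-arrestin as split beta-galactosidase partners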
# Sequence of Mu-type opioid receptor (P35372 whole entry): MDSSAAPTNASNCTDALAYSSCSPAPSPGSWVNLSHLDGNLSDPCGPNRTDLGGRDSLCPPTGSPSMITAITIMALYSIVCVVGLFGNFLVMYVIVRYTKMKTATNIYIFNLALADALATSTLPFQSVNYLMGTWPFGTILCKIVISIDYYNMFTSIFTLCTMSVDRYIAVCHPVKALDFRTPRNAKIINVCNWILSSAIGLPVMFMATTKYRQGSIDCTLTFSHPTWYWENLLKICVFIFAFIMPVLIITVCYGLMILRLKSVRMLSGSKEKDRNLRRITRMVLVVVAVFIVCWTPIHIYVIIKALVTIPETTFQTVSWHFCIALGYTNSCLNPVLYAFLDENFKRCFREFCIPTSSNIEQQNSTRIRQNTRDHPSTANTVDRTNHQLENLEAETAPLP
# [4] = target: T3, Tyrosine-protein phosphatase non-receptor type 7 (Homo sapiens, UniProt P35236); type: functional
# T3 sequence (P35236 whole entry): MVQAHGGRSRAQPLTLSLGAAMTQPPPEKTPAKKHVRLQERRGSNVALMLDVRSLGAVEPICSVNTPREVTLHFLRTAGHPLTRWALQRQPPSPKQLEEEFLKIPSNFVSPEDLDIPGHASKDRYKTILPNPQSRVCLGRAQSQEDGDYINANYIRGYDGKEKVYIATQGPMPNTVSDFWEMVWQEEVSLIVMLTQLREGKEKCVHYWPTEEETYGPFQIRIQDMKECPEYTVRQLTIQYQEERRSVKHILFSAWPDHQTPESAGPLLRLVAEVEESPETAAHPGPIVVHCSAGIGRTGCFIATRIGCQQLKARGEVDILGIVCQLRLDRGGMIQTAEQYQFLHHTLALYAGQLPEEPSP
# [5] = target: Sphingosine 1-phosphate receptor 2 (Homo sapiens, UniProt O95136); experiment: Dose Response Cell Based Assay for Antagonists of the S1P2 Receptor. [Related pubchem assays: 856, 736 ]; type: functional
# Sequence of Sphingosine 1-phosphate receptor 2 (O95136 whole entry): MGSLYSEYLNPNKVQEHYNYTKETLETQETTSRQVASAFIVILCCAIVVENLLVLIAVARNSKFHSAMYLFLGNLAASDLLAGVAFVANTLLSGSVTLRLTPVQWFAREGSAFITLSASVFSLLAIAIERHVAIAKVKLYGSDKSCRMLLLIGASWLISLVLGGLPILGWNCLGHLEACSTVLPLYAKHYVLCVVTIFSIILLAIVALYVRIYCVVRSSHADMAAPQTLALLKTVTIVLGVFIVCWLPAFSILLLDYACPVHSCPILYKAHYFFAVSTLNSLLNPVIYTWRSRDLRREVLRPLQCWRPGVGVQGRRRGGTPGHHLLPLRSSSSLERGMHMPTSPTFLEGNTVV
compound,measurement,setting,value
Oc1nc(Nc2ccccc2Cl)cc2ccccc12,IC50,[1],3140 nM (active)
O=C(CCN1C(=O)/C(=C\c2ccco2)SC1=S)Nc1ccc(C(=O)O)c(O)c1,AC50,[2],13800 nM (active)
O=C1C=C(c2c(O)ccc3ccccc23)c2ccccc2C1=O,AC50,[2],1700 nM (active)
same,EC50,[3],> 92400 nM (inactive)
Cc1nc2c(=O)n(C)c(=O)nc-2n(C)n1,IC50,[4],< 1240 nM (active)
same,IC50,[5],1400 nM (active)
